Data reported in patent EP0345906B1, “Unique elastase induced fibrinogen cleavage site antigens” (MERCK & CO. INC., priority 1988, dated 1989).
“And” between values parts separate entries of the source, which are not always exact repeats. Identical values can stand only once.

How the values were obtained:
whole human blood = assay: In vitro production of Aα 17-21 epitope containing peptide in human blood, effect of ionophore concentration; type: cell-based; set-up: Aα 17-21 Epitope Containing (picomoles per ml blood): unit of the concentration uncertain; conditions: for Aα 17-21 Epitope Containing (picomoles per ml blood): 15 minutes at 37°C
Description: The radioimmunoassay was conducted in a total volume of 300 ml with all dilutions carried out in assay buffer, Example 6. Standard solutions were prepared at concentrations in the range of 1 x 10⁻¹⁰M to 2 x 1O⁻⁸M which represents amounts of peptide ranging from 0.01 picomoles to 2.0 picomoles in the 100 ml aliquot used in the assay. The assay included antibody-free controls to measure non-specific binding, and controls containing antibody and probe without added standard samples or unknown samples to determine the control level of peptide binding. To 100 ml of buffer, standard sample or unknown was added, 100 ml of specific antiserum from Examples 2 and 7, diluted 1:1,000 in assay buffer. This was followed by the addition of […] of radioactive probe, 125I-Tyrosyl-Aα 1-21 fibrinogen peptide, diluted in assay buffer to yield approximately 15,000 to 20,000 cpm per 100 ml aliquot. The assay was incubated overnight at 4°C and the non-antibody-bound radioactive probe was separated from antibody-bound probe by adsorption onto dextran-coated activated charcoal, see Example 7. Each assay included charcoal-free controls, to which 1 ml PBS was added for the determination of total counts. Radioactivity was determined using a gamma counter and standard techniques known in the art.
The antibody-free control and the zero-peptide antibody control were counted to determine the 0% bound and 100% bound values respectively. The assay standards are then counted and divided by the antibody control to determine the percent bound and a standard curve was generated. When the percent bound is plotted as a function of the logarithem of the amount of peptide in the standard, a sigmoidal curve is generated which is close to linear between the limits of 80% bound and 20% bound. Unknowns are counted, their percent of control calculated and they are compared to the standard curve to determine the amount of peptide present in the sample. Only those unknowns with values between 80% and 20% of control binding are considered valid.
Duplicate 1.0 ml aliquots of freshly-drawn heparinized vaccutainers containing 50 u per ml whole human blood were incubated for 15 minutes at 37°C in the presence of calcium ionophore A23187 at concentrations ranging up to 200 mM. The calcium ionophore was dissolved in dimethyl sulfoxide (DMSO) with the DMSO concentration in blood kept constant at 0.2%. Following incubation the aliquots were placed on ice, centrifuged and the plasma collected. Plasma aliquots (400 ml) were removed and placed in 12 x 75 mm glass tubes and 1200 ml chilled ethanol was added to precipitate the protein. The sample was centrifuged and 800 ml of the supernatant fluid was removed and evaporated to dryness in a Speed-vac concentrator. The sample was reconstituted to original plasma volume with 200 ml of distilled water. Duplicate […] aliquots were assayed for Aα 17-21 epitope containing peptide (Aα 1-21) as described in this Example. […]

whole blood = assay: In vitro production of Aα 17-21 epitope containing peptide in whole blood, ionophore incubation time; type: cell-based, human; set-up: dose or concentration left out as unconfirmed
Description: Calcium ionophore A23187 was added to replicate 1.0 ml aliquots of freshly-drawn heparinized whole blood as described above, to a final concentration of 150 mM. Additional control aliquots of blood received DMSO at a concentration of 0.2%. The blood aliquots were incubated at 37° for various time intervals ranging up to 60 minutes. Following the incubation, plasma was prepared, processed and assayed as above.

[1] = tested on: Whole Blood of PiZZ and Normal Individuals; assay: A23187-stimulated production of fibrinogen cleavage peptide in blood of PiZZ and normal individuals; type: cell-based, human; set-up: dose or concentration left out as unconfirmed; conditions: 37° for 25 minutes, one value per individual
Description: Heparinized venous blood was drawn from four individuals who process the PiZZ phenotype, deficient for alpha-1 proteinase inhibitor. Blood was also collected from two normal volunteers. Calcium ionophore A23187 was added to replicate aliquots of the freshly drawn blood to a final concentration of 150 mM. The blood was incubated at 37° for 25 minutes, the plasma collected and assayed cleavage peptide.
Values are expressed as pM Aα 17-21 epitope containing peptide produced per ml of plasma. The blood samples derived from the four individuals who were genetically deficient in alpha-1 proteinase inhibitor produced greater amounts of peptide than did those derived from the normal volunteers. Under basal conditions no fibrinogen cleavage products could be detected in the blood of any of the donors.

[2] = tested on: Rabbit antiserum prepared against the Aα 17-21 immunogen; assay: Antibody specificity radioimmunoassay, rabbit antiserum; type: binding; conditions: antiserum 1:1,000; probe ¹⁵I-tyrosyl-Aα 1-21; amount in 100 ml aliquot
Description: Antibody specificity was determined by evaluating the ability of unlabelled peptides, specificity probes, of varying length, see Example 6, to inhibit the binding of the Aα 1-21radioactive probe. Rabbit antiserum prepared against the Aα 17-21 immunogen described in Example 2 was diluted in assay buffer, see Example 6, at a dilution of 1:1,000. The specificity peptides of Example 5 were diluted in assay buffer at concentrations ranging from 1.6 x 10⁻¹⁰ M to 1 x 10⁻⁵ M. One hundred ml of each dilution was added to 100 ml of antiserum and 100 ml of radioactive probe. This represents specificity probe peptide in concentrations ranging from 0.016 picomoles to 1.0 nanomoles in the 100 ml aliquot used in the assay. The radioactive probe […], see Example 5, was diluted in assay buffer to yield approximately 20,000 cpm per 100 ml aliquot, the amount used per sample or control. The assay was set up in a volume of 300 ml, with the volume made up where necessary with assay buffer. […]
The antibody-free control and the zero-peptide antibody control are counted to determine the 0% bound and the 100% bound values respectively. Radioactivity was determined using a gamma counter and standard techniques known in the art. The samples containing the test peptides are then counted and the amount of radioactivity associated with the antibody-free control subtracted from each. […]

Guinea Pig (#3) = assay: Antibody specificity radioimmunoassay, guinea pig antiserum; type: binding; conditions: probe ¹⁵I-tyrosyl-Aα 1-21

For `CNc1ccc2oc(C[C@H]3O[C@@]4(CC[C@H]3C)O[C@H]([C@H](C)C(=O)c3ccc[nH]3)[C@H](C)C[C@H]4C)nc2c1C(=O)O` [A23187], the “Aα 17-21 Epitope Containing (picomoles per ml blood)” value (whole human blood; Ionophore Concentration 5 (unit uncertain)) was 1.2 picomoles per ml blood, the “Aα 17-21 Epitope Containing (picomoles per ml blood)” value (whole human blood; Ionophore Concentration 15 (unit uncertain)) was 1.6 picomoles per ml blood and the “Aα 17-21 Epitope Containing (picomoles per ml blood)” value (whole human blood; Ionophore Concentration 25 (unit uncertain)) was 2.6 picomoles per ml blood. The “Aα 17-21 Epitope Containing (picomoles per ml blood)” value (whole human blood; Ionophore Concentration 50 (unit uncertain)) was 2.8 picomoles per ml blood, the “Aα 17-21 Epitope Containing (picomoles per ml blood)” value (whole human blood; Ionophore Concentration 100 (unit uncertain)) was 4.0 picomoles per ml blood and the “Aα 17-21 Epitope Containing (picomoles per ml blood)” value (whole human blood; Ionophore Concentration 150 (unit uncertain)) was 4.1 picomoles per ml blood. For the same molecule, the “Aα 17-21 Epitope Containing (picomoles per ml blood)” value (whole human blood; Ionophore Concentration 200 (unit uncertain)) was 3.8 picomoles per ml blood, the “concentration giving optimal production of Aα 17-21 epitope-containing peptide” value (whole human blood; whole human blood) was 150 mM and the “Aα 17-21 Epitope (picomoles/ml plasma)” value (whole blood; Incubation Time 2.5 minutes) was 2.3 picomoles/ml plasma. For the same molecule, the “Aα 17-21 Epitope (picomoles/ml plasma)” value (whole blood; Incubation Time 7.5 minutes) was 2.8 picomoles/ml plasma, the “Aα 17-21 Epitope (picomoles/ml plasma)” value (whole blood; Incubation Time 10.0 minutes) was 3.5 picomoles/ml plasma and the “Aα 17-21 Epitope (picomoles/ml plasma)” value (whole blood; Incubation Time 15.0 minutes) was 3.7 picomoles/ml plasma. For the same molecule, the “Aα 17-21 Epitope (picomoles/ml plasma)” value (whole blood; Incubation Time 20.0 minutes) was 3.7 picomoles/ml plasma, the “Aα 17-21 Epitope (picomoles/ml plasma)” value (whole blood; Incubation Time 25.0 minutes) was 3.8 picomoles/ml plasma and the “Aα 17-21 Epitope (picomoles/ml plasma)” value (whole blood; Incubation Time 30.0 minutes) was 3.8 picomoles/ml plasma. For the same molecule, the “Aα 17-21 Epitope (picomoles/ml plasma)” value (whole blood; Incubation Time 40.0 minutes) was 3.6 picomoles/ml plasma, the “Aα 17-21 Epitope (picomoles/ml plasma)” value (whole blood; Incubation Time 50.0 minutes) was 3.1 picomoles/ml plasma and the “Aα 17-21 Epitope (picomoles/ml plasma)” value (whole blood; Incubation Time 60.0 minutes) was 3.2 picomoles/ml plasma. The “Aα 17-21 Epitope (picomoles/ml plasma)” value (whole blood; Incubation Time <1.0 minutes) was 0.7 picomoles/ml plasma, the “Aα 17-21 epitope containing peptide produced per ml of plasma, A23187” value ([1]; Normal individuals) was 4.2 pM per ml of plasma and 4.6 pM per ml of plasma and the “Aα 17-21 epitope containing peptide produced per ml of plasma, A23187” value ([1]; PiZZ individuals) was 8.4 pM per ml of plasma and 26.5 pM per ml of plasma and 20.5 pM per ml of plasma and 17.8 pM per ml of plasma.
In the case of “Gly-Pro-Arg-Val-Val (GPRVV; printed: Gly-Pro-Arg-Val-Val) [Aα 17-21]”, the “Inhibitory Concentration (IC₅₀) picomoles Rabbit (#20)” value [2] is reported as 1.6 picomoles and the “Inhibitory Concentration (IC₅₀) picomoles Guinea Pig (#3)” value (Guinea Pig (#3)) is reported as 10 picomoles.
